Data set [1] is described as follows: Photostability protocol (UV exposure, ICH Q1B, SUNTEST, HPLC). It counts as physicochemical. Particulars: after 17 h exposure to UV light; for Elafibranor degradation (%): HPLC-UV at 350 nm. As for the experimental part:
In order to make the difference between the degradation only due to temperature within the SUNTEST apparatus chamber and the degradation only due to UV exposure, a second elafibranor salt sample protected from light is also placed in the SUNTEST chamber. All samples are then analyzed by HPLC.
The crystallized samples were stressed by exposure to UV light according to the photostatbility protocol described above.

Data set [2] concerns the target T1, PPARalpha (Homo sapiens, UniProt Q07869).
T1 sequence (Q07869 200-468 limits assumed): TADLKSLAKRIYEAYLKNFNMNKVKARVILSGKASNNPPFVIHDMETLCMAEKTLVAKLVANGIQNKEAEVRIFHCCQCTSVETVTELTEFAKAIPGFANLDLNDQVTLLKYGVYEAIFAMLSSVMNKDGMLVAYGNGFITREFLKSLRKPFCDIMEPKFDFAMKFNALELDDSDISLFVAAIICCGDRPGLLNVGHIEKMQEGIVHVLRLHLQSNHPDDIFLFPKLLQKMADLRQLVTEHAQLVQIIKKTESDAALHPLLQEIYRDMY
Put plainly: Gal4-PPAR transactivation assay in COS-7 cells, human PPARalpha. It counts as cell-based. As to the method:
(§1) Monkey kidney COS-7 cells were maintained in standard culture conditions (Dulbecco's modified Eagle's minimal medium: DMEM) supplemented with 10% fetal calf serum, 1% sodium pyruvate, 1% essential amino acids, 1% L-glutamine and 1% antibiotics at 37° C. in a humidified atmosphere of 5% CO2 and 95% air. The medium was changed every 2 days. All tested compounds were dissolved in DMSO. Cells were transfected using 4 μl JetPEI™ (Polyplus transfection)/μg of DNA. Briefly, 150 ng of DNA per well was transfected in a 96 well culture plate of adherent COS-7 cells (respecting the 10:1 ratio between the Gal4(RE)_TkpGL3 plasmid and the plasmid coding the nuclear receptor of interest (pGal4-hPPARalpha, pGal4-hPPARgamma, pGal4-hPPARdelta, pGal4-mPPARalpha, pGal4-mPPARgamma and pGal4-mPPARdelta) or of the pGal4phi plasmid (negative control). Cells were enzymatically detached and seeded in 96 well plates at the density of 40,000 cells per well and then incubated for 24 hours at 37° C. The activation was performed in DMEM 0% fetal calf serum, supplemented with the tested compounds (compound of interest or reference molecules) or vehicle (DMSO 0.1%). The luciferase activity was measured with the Steady-Glo Luciferase Assay System (Promega, Madison, WI). All transactivation experiments were performed at least 2 times. Activation curves were realized using Prism® (from GraphPad) software. Prism® was also used to fit the standard curves and then determine the specific EC50 values, maximum effect versus reference molecules and Hill slope. The Emax effect of each new ligand is represented as the ratio of the maximal induction (plateau) obtained with the new ligand and the induction obtained with the corresponding reference compound. The reference compounds for PPARalpha, PPARgamma and PPARdelta were fenofibrate (100 μM), rosiglitazone (10 μM) and GW501516 (1 μM), respectively.

Data set [3] has as its target T2, PPARgamma (Homo sapiens, UniProt P37231).
T2 sequence (P37231 238-505 limits assumed): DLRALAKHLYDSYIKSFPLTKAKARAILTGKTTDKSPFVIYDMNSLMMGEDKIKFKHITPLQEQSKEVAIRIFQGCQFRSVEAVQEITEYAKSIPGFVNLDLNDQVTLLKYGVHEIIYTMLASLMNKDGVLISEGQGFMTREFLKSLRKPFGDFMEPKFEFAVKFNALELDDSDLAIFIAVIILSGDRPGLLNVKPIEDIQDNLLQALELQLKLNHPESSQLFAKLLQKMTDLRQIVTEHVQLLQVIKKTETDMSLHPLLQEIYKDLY
Put plainly: Gal4-PPAR transactivation assay in COS-7 cells, human PPARgamma. It counts as cell-based. As for the experimental part:
as §1

In data set [4] the target is T3, PPARalpha (Mus musculus, UniProt P23204).
T3 sequence (P23204 200-468 limits assumed): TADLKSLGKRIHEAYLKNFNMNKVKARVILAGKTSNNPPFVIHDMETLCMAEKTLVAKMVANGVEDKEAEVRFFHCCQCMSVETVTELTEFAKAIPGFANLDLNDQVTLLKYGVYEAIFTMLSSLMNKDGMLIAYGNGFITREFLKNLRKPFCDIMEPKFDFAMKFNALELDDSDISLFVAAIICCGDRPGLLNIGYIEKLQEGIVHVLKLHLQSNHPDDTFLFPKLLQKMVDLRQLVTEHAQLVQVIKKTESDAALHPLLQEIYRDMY
Put plainly: Gal4-PPAR transactivation assay in COS-7 cells, murine PPARalpha. It is filed as cell-based. As to conditions: Murin. As to the method:
as §1

In data set [5] the target is T4, PPARgamma (Mus musculus, UniProt P37238).
T4 sequence (P37238 238-505 limits assumed): T2 sequence (P37231 238-505 limits assumed) with S93N, V98I, S146N, L226V, Q245H
Put plainly: Gal4-PPAR transactivation assay in COS-7 cells, murine PPARgamma. It is filed as cell-based. As to conditions: Murin. As to the method:
as §1

A short description of a further data set: physchem. As to conditions: for solubility at 24 h: 20 °C, thermodynamic from solid. As to the method: The solubility of the compound is determined in buffered aqueous solution at pH 1, pH 3, pH 5 and pH 7.4.
The saturation is obtained by adding an excess of active ingredient to a given volume of test medium. The suspension is stirred by orbital stirring over 24 hours at […], away from light.
After 30 min, 1 hour, 2 hours and/or 24 hours, the supernatant is isolated by centrifugation and diluted in a solvent mixture allowing its injection into the chromatographic system. The concentration (expressed as parent concentration) in solution for each medium is determined by HPLC (external standardization).
After 24 hours an XRPD analysis is performed on the insoluble fraction isolated by centrifugation.
• pH 1 HCl/KCl buffer: a mixture of 0.373 g of KCl and 13.4 ml of HCl in a 100 mL volumetric flask was completed to 100 mL with de-ionized water. • pH 3 citrate buffer: 1.051 g of citric acid monohydrate was dissolved in 250 ml of de-ionized water. The pH was adjusted to 3 with NaOH. • pH 5 citrate/phosphate buffer: Solution I was prepared: 2.8392 g of Na2HPO4 in 100 mL volumetric flask was completed to 100 mL with de-ionized water. Solution II was prepared: 2.1004 g of citric acid monohydrate in a 100 mL volumetric flask was completed to 100 mL with de-ionized water. To 48.5 mL of Solution II were added 51.5 mL of Solution I. • pH 7.4 phosphate buffer: a mixture of 38 g of Na2HPO4, 12H2O and 3.8 g of Na2HPO4, 2H2O in a 1 L volumetric flask was completed to 1 L with de-ionized water. Salt Screening Macroscopic Observation

The mark [6] stands for this setting: listed as Elafibranor L-Arginine salt.

Where a chain is given by its changes, count along the chain named. Values after ≈ are worked out from the molar mass of the structure shown. Where a name gives a salt, the structure may show the parent alone. Read-outs that look alike come from different tables or passages of the source. Where only a bound is given, the exact number is not on record here.

What is called EC50 is the concentration needed to bring the measured effect to its halfway point. As to `CSc1ccc(C(=O)/C=C/c2cc(C)c(OC(C)(C)C(=O)O)c(C)c2)cc1` [Form II, Elafibranor potassium salt], the “Photostability compared to elafibranor free acid” value in data set [1] is listed as “significant improvement of the photostability”. For the same compound, the “Elafibranor degradation (%)” value in data set [1] (listed as Potassium salt (Form II), potassium salt) was 13%; in data set [1] (potassium salt), 13%. Besides, the EC50 on PPARalpha [2] worked out at 64 nM; at PPARgamma [3] it was 430 nM; on PPARalpha [4], 96 nM; at PPARgamma [5], 590 nM.

For `CSc1ccc(C(=O)/C=C/c2cc(C)c(OC(C)(C)C(=O)O)c(C)c2)cc1.N=C(N)NCCC[C@H](N)C(=O)O` [Form IV, Elafibranor L-arginate salt], the “Photostability compared to elafibranor free acid” value in data set [1] is “significant improvement of the photostability”. Further, the “Elafibranor degradation (%)” value in data set [1] was found to be 4%. Besides, the EC50 on PPARalpha [2] (setting [6]) turned out to be 54 nM; at PPARgamma [3] (setting [6]) it was 320 nM; at PPARalpha [4] (setting [6]), 93 nM; at PPARgamma [5] (setting [6]), 580 nM.

Turning to `CSc1ccc(C(=O)/C=C/c2cc(C)c(OC(C)(C)C(=O)O)c(C)c2)cc1` [Form III, Elafibranor sodium salt], the “Elafibranor degradation (%)” value in data set [1] (sodium salt) stood at 89%. The EC50 on PPARalpha [2] turned out to be 77 nM; at PPARgamma [3] it was 560 nM; on PPARalpha [4], 133 nM; on PPARgamma [5] it was 770 nM.

By solubility is commonly meant how much of the substance goes into solution per volume. With `CSc1ccc(C(=O)/C=C/c2cc(C)c(OC(C)(C)C(=O)O)c(C)c2)cc1` [Elafibranor, reference compound], the solubility at 24 h in the data set “physchem” (pH 1, simulated gastric fluid) was less than 1 µg/mL; in the data set “physchem” (pH 3, aqueous buffer), less than 1 µg/mL; in the data set “physchem” (pH 5, aqueous buffer), 1 µg/mL (≈ 2.6 µM); in the data set “physchem” (pH 7.4, aqueous buffer) it was 130 µg/mL (≈ 338 µM). Also, the “Final pH of the saturated solution” value in the data set “physchem” (pH 1 HCl/KCl buffer) turned out to be 0.7; in “physchem” (pH 3 citrate buffer), 2.9; in the data set “physchem” (pH 5 citrate/phosphate buffer) it was 4.9; in “physchem” (pH 7.4 phosphate buffer) it was 7.3. The “Elafibranor degradation (%)” value in data set [1] (listed as Free acid) and in data set [1] (listed as elafibranor free acid) was 27% throughout. The EC50 stood at 57 nM at PPARalpha [2], 430 nM on PPARgamma [3], 95 nM on PPARalpha [4] and 580 nM on PPARgamma [5].

Take `CSc1ccc(C(=O)/C=C/c2cc(C)c(OC(C)(C)C(=O)O)c(C)c2)cc1.NC(CO)(CO)CO` [Form I, Elafibranor tromethamine salt]: the “Final pH of the saturated solution” value stood at 0.9 in the data set “physchem” (pH 1 HCl/KCl buffer), 3.1 in “physchem” (pH 3 citrate buffer), 5.1 in the data set “physchem” (pH 5 citrate/phosphate buffer) and 7.3 in the data set “physchem” (pH 7.4 phosphate buffer). Moreover, the “Soluble fraction (mg/mL) at 20° C. at 24 hours” value in “physchem” (pH 1 HCl/KCl buffer) is reported as less than 0.001 mg/mL; in the data set “physchem” (pH 3 citrate buffer), less than 0.001 mg/mL; in the data set “physchem” (pH 5 citrate/phosphate buffer), 0.003 mg/mL; in the data set “physchem” (pH 7.4 phosphate buffer), 0.19 mg/mL. Moreover, the “Solubility compared to elafibranor” value in the data set “physchem” (pH 7.4) is “more soluble than elafibranor”. For the same compound, the “Photostability compared to elafibranor free acid” value in data set [1] is “significant improvement of the photostability”. For the same compound, the “Elafibranor degradation (%)” value in data set [1] worked out at 10%. Besides, the EC50 on PPARalpha [2] was 68 nM; at PPARgamma [3], 490 nM; at PPARalpha [4], 103 nM; on PPARgamma [5], 730 nM.

Source of the values: patent US12030840B2 (GENFIT, priority 2018, dated 2024).
